According to the CheMixHub drug solubility set:

Experiment: xn = mol fraction of the nth substance listed, in the solute-free solvent

c1ccc2[nH]c(-c3cscn3)nc2c1 + CCCO + O
solubility (g/100 g solution)
Settings	283.15 K	288.15 K	293.15 K	298.15 K	303.15 K	308.15 K	313.15 K	318.15 K	323.15 K
x2 = 0.03225	0.00325	0.00407	0.00514	0.00634	0.00789	0.00974	0.0118	0.0143	0.0173
x2 = 0.06974	0.0139	0.017	0.021	0.0263	0.0319	0.0383	0.0458	0.0545	0.0646
x2 = 0.1139	0.0334	0.0402	0.0487	0.0585	0.0703	0.0828	0.0976	0.116	0.136
x2 = 0.1666	0.0767	0.09	0.106	0.122	0.142	0.162	0.188	0.212	0.242
x2 = 0.2307	0.141	0.163	0.188	0.216	0.249	0.284	0.321	0.365	0.413
x2 = 0.3103	0.21	0.243	0.282	0.322	0.367	0.415	0.47	0.525	0.592
x2 = 0.4117	0.291	0.331	0.38	0.435	0.497	0.563	0.633	0.707	0.794
x2 = 0.5454	0.37	0.423	0.483	0.545	0.62	0.699	0.785	0.879	0.983
x2 = 0.7297	0.425	0.482	0.553	0.623	0.708	0.79	0.883	0.986	1.1

CC(C)=CCCC(C)C1CCC2(C)C3=C(CCC12C)C1(C)CCC(O)C(C)(C)C1CC3 (configuration not stated) + CCO + O
solubility (g/100 g solution)
Settings	278.15 K	288.15 K	298.15 K	308.15 K	318.15 K
x2 = 0.01604	3.88e-05	6.47e-05	0.000106	0.000176	0.000263
x2 = 0.1154	0.000122	0.000181	0.000283	0.000357	0.000444
x2 = 0.3147	0.000276	0.000461	0.000699	0.00134	0.00191
x2 = 0.7415	0.245	0.366	0.512	0.754	0.839

CC(C)OC(=O)C(C)NP(=O)(OCC1OC(n2ccc(=O)[nH]c2=O)C(C)(F)C1O)Oc1ccccc1 (configuration not stated) + CCO + O
solubility (g/100 g solution)
Settings	278.15 K	283.15 K	288.15 K	293.15 K	298.15 K	303.15 K	308.15 K	313.15 K	318.15 K
x2 = 0.04165	0.327	0.484	0.653	0.882	1.17	1.57	2.08	2.71	3.42
x2 = 0.08908	1.42	2.02	2.65	3.46	4.44	5.7	7.2	9.04	10.9
x2 = 0.1436	3.58	4.78	6.12	7.78	9.72	12.1	14.7	17.7	21
x2 = 0.2068	5.74	7.67	9.66	12	14.8	17.8	21.3	25.1	29
x2 = 0.2812	7.44	9.76	12.2	14.9	18.1	21.6	25.5	29.7	33.9
x2 = 0.3698	9.07	11.6	14.4	17.3	20.7	24.9	29	33.2	37.7
x2 = 0.4772	11	13.7	16.6	20.2	24.2	28.3	32.5	36.8	41.3
x2 = 0.6101	13.9	17	20.8	24.3	28.5	32.3	37.2	41.6	46.3
x2 = 0.7788	17.6	20.9	24.6	28.8	33.3	37.8	42.4	47	51.6

COc1cc2c(cc1OC)-c1cc3ccc(OC)c(OC)c3c[n+]1CC2.[Cl-] + CCO + O
solubility (g/100 g solution)
Settings	283.15 K	288.15 K	293.15 K	298.15 K	303.15 K	308.15 K	313.15 K	318.15 K	323.15 K	328.15 K
x2 = 0.04165	1.22	1.49	1.87	2.33	2.87	3.46	4.17	4.96	5.87	6.89
x2 = 0.08908	1.26	1.54	1.93	2.4	2.94	3.56	4.28	5.08	6.01	7.05
x2 = 0.1436	1.34	1.62	2.03	2.52	3.14	3.77	4.52	5.34	6.28	7.33
x2 = 0.2068	1.44	1.74	2.17	2.68	3.27	3.94	4.73	5.59	6.6	7.72
x2 = 0.2812	1.57	1.89	2.37	2.96	3.58	4.32	5.15	6.02	7.08	8.21
x2 = 0.3698	1.72	2.06	2.54	3.13	3.8	4.55	5.44	6.39	7.51	8.77
x2 = 0.4772	1.88	2.23	2.75	3.38	4.16	5.02	5.95	6.91	8.09	9.31
x2 = 0.6101	2.02	2.39	2.94	3.6	4.33	5.16	6.14	7.16	8.39	9.76
x2 = 0.7788	2.11	2.48	3.08	3.79	4.53	5.41	6.4	7.47	8.65	9.96
